According to patent publication US9249117B2, “Use of compounds from Antrodia camphorata in manufacturing medicaments for treating kidney diseases” (priority 2014, dated 2016):

How the values were obtained:
[1] = test system: MCP-1; experiment: Anti-inflammatory response: MCP-1 in supernatant by ELISA; format: cell-based, Mouse; conditions: for anti-inflammation (MCP-1) inhibition effect (in words): 0.012 μg/ml and 0.048 μg/ml; for inhibition at 0.012 µg/mL / inhibition at 0.048 µg/mL: Mus musculus, read-out: Inhibited MCP-1 level
Description: It is known that MCP1 plays an important role in interstitial inflammation, tubular atrophy, and kidney fibrosis. Therefore, by performing the protein test, the effects of Antrodia camphorata about anti-inflammation for the cells in kidney can be determined.
According to the manual, MCP-1 in the supernatant was detected by ELISA kits (Biosciences, Los Angeles, Calif., USA) and was determined by ELISA reader (Bio-Tek) (for wavelength absorbance of 450 nm). * * * indicated as p<0.005, NS indicated.

[2] = test system: ROS in mesangial cells; experiment: Determination of reactive oxygen species (ROS) in LPS-treated mesangial cells; format: cell-based, Mouse; conditions: in 5 minutes; for effect for inhibiting ROS / anti-oxidative effect (in words): 0.012 μg/ml and 0.048 μg/ml; for inhibition at 0.012 µg/mL / inhibition at 0.048 µg/mL: Mus musculus, Mesangial cell, 5 min, read-out: Inhibiting ROS %
Description: Determination of ROS was by detecting the intensity of fluorescence from an oxide of 2′,7′-dichlorofluorescein diacetate (2′,7′-dichlorofluorescein diacetate). The mesangial cells was treated as compounds which are to be measured, and 2′,7′-dichlorofluorescein diacetate (2 μM) was added to react for 30 minutes. After reaction for 30 minutes, LPS was added at specific time. Then, the signals were determined by […] (Bio-Rad Laboratories, Inc) with exciting wavelength of 485 nm and emitting wavelength of 530 nm.
Because ROS was inseparably related to kidney diseases, the results for determination of ROS in the aforementioned cells were shown in FIG. 2A-2F.

[3] = test system: mesangial cells (Mouse MC line CRL-1927); experiment: MTT cell viability assay using mesangial cells; conditions: all chosen concentrations (0.01~200 μg/ml), 48 hours, FIGS. 1A-1F
Description: Here, Mouse MC line CRL-1927 was used in order to proceed the subsequent experiments. The cell line was derived from American Type Culture Collection (Rockville, Md., USA), and then was operated regular culture with a culture medium consisted of Dulbecco's modified Eagle's medium and Ham's F-12 medium with 3:1 ratio, and adding 5% fetal bovine serum and 14 mM HEPES.
The aforementioned cell line was cultured in the culture medium for 24 hours. The cells after hyperplasia were washed once with PBS, and treated with 1 time trypsin-EDTA, and followed by centrifuging at 1,200 rpm for 5 minutes, and the cells sedimented to form the cell pellet and the supernatant was removed. Then, 10 ml fresh medium was added, and the cells were re-suspended by shaking slightly. The cells were placed in 96-well microplate. When they were tested, 0.01˜200 μg/ml compounds from Antrodia camphorata were added into each of the well. The cells were incubated at 37° C. with 5% CO2 for 48 hours. Subsequently, 5 mg/ml 3-(4,5-dimethylthiazol-2-yl)-2,5-diphenyltetrazolium bromide (MTT) were added into the each well to react in the dark environment for 2 hours. Furthermore, in order to calculate the survival rate of the cells, the absorbance at wavelength of 570 nm was determined by enzyme-linked immunosorbent assay, and then the needed concentration for the half growth inhibition ratio (IC50) was calculated. […]

Row | Compound | Inhibited MCP-1 level ([1]; 0.012 μg/ml) [%] | Inhibited MCP-1 level ([1]; 0.048 μg/ml) [%] | effect for inhibiting ROS / anti-oxidative effect (in words) [2] | Inhibiting ROS % ([2]; 0.012 μg/ml) [%] | Inhibiting ROS % ([2]; 0.048 μg/ml) [%] | effect on mesangial cell growth (MTT cell viability) [3] | anti-inflammation (MCP-1) inhibition effect (in words) [1] | inhibition at 0.012 µg/mL ([1]; 0.012 μg/ml) [%] | inhibition at 0.048 µg/mL ([1]; 0.048 μg/ml) [%] | inhibition at 0.012 µg/mL ([2]; 0.012 μg/ml) [%] | inhibition at 0.048 µg/mL ([2]; 0.048 μg/ml) [%]
1 | 4-acetyl-Antroquinonol B | 0 | 0 | exhibited anti-oxidation for nephritis cells | 5 | 12 | did not affect mesangial cells to grow | – | – | – | – | –
2 | COC1=C(OC)C(O)C(CC=C(C)CCC=C(C)CC(O)C=C(C)C)C(C)C1=O (centres unmarked) [Antrocamol LT1, 4-hydroxy-5-[9-hydroxy-3,7,11-trimethyldodeca-2,6,10-trienyl]-2,3-dimethoxy-6-met hyl-cyclohex-2-enone] | – | – | – | – | – | – | did not have the effects of inhibition | 0 | 0 | 3 | 14
3 | COC1=C(OC)C(OC(C)=O)C(CC=C(C)CCC=C(C)CC(O)C=C(C)C)C(C)C1=O (centres unmarked) [Antrocamol LT2, 4-acetoxy-5-[9-hydroxy-3,7,11-trimethyldodeca-2,6,10-trienyl]-2,3-dimethoxy-6-met hyl-cyclohex-2-enone] | – | – | – | – | – | – | did not have the effects of inhibition | 0 | 0 | 0 | 0
4 | COC1=C(OC)[C@H](O)[C@H](C/C=C(\C)CC/C=C(\C)C/C=C/C(C)(C)O)[C@@H](C)C1=O [Antrocamol LT3, (4R,5R,6R)-4-hydroxy-5-[(2E,6E,9E)-11-hydroxy-3,7,11-trimethyldodeca-2,6,9-trienyl]-2,3-dimethoxy-6-methylcyclohex-2-enone] | – | – | did not have the inhibiting effect | – | – | – | better effect for inhibiting MCP-1 level | 0 | 40.2 | 0 | 0
5 | COC1=C(OC)[C@H](O)[C@H](C/C=C(\C)CC/C=C(\C)CCC=C(C)C)[C@@H](C)C1=O [Antroquinonol, reference compound] | – | – | did not have the inhibiting effect | – | – | – | did not have the effects of inhibition | 0 | 0 | 0 | 0
6 | Antroquinonol B | 0 | 0 | exhibited anti-oxidation for nephritis cells | 0 | 12.5 | did not affect mesangial cells to grow | did not have the effects of inhibition | – | – | – | –
